Legend:
[1] = target: T1, Serine/threonine-protein kinase ULK2 (Homo sapiens) (UniProt Q8IYT8); test: Selectivity interaction (Ambit KINOMEscan and KiNATiv profiling in Jurkat cells) EUB0000090b ULK2; assay type: cell-based; settings: at 1 µM
T1 sequence (whole entry): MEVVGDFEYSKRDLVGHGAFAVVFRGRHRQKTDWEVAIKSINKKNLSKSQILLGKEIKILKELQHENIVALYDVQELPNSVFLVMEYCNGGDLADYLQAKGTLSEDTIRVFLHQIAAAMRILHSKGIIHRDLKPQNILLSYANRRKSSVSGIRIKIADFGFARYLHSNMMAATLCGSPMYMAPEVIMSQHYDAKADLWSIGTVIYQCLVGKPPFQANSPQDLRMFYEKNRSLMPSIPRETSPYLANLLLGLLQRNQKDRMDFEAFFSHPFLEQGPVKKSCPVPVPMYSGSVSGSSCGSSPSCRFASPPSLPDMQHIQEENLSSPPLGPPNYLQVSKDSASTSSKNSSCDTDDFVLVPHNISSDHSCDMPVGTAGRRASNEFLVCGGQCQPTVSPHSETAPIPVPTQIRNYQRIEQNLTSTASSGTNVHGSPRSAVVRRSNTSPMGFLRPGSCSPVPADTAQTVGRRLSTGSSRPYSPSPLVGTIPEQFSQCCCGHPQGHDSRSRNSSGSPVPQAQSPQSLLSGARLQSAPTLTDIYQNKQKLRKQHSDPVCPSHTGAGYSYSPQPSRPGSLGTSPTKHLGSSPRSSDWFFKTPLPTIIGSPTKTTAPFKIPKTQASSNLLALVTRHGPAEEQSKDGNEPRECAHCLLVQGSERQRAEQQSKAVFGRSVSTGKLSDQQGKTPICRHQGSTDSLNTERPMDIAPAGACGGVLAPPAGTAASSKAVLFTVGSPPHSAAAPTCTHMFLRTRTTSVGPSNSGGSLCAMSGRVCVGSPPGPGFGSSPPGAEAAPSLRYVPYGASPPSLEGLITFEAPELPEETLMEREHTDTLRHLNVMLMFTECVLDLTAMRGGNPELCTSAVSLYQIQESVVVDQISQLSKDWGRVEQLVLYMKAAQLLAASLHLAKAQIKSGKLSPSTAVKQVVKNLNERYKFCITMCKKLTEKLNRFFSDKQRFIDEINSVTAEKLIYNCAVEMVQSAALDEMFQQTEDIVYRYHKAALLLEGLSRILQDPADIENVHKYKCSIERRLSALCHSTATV

[2] = target: Protein arginine N-methyltransferase 1 (Homo sapiens, UniProt Q99873); test: Selectivity interaction (Methyltransferase screen (Scintillation proximity assays)) EUB0000255b PRMT1
Protein arginine N-methyltransferase 1, sequence (Q99873 whole entry, looked up): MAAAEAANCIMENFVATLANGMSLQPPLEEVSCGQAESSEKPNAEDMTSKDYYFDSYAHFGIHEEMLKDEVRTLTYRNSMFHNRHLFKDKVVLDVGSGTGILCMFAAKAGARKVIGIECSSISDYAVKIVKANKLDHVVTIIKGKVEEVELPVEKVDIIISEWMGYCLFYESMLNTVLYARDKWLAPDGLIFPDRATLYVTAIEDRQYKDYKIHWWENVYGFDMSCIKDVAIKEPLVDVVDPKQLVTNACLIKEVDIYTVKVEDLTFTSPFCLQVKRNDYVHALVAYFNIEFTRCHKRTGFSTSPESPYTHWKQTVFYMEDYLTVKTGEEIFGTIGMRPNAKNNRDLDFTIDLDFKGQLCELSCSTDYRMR

Aurora kinase B = Aurora kinase B (Homo sapiens, UniProt Q96GD4); test: Selectivity interaction (KinomeScan (DiscoverX)) EUB0001079a AURKB; settings: at 1 µM
Aurora kinase B, sequence (Q96GD4 whole entry): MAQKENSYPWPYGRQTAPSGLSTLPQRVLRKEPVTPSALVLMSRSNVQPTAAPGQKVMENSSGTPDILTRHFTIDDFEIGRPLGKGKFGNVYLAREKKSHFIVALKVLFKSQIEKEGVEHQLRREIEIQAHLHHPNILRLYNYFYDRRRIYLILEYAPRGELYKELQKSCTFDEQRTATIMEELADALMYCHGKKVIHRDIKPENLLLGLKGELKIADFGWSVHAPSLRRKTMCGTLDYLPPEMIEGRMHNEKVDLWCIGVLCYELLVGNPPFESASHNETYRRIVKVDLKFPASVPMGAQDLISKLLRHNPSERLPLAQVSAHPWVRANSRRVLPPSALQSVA

[3] = target: T2, TGF-beta receptor type-1 (Homo sapiens) (UniProt P36897); test: Selectivity interaction (KinomeScan (DiscoverX)) EUB0001079a TGFBR1; settings: at 1 µM
T2 sequence (whole entry): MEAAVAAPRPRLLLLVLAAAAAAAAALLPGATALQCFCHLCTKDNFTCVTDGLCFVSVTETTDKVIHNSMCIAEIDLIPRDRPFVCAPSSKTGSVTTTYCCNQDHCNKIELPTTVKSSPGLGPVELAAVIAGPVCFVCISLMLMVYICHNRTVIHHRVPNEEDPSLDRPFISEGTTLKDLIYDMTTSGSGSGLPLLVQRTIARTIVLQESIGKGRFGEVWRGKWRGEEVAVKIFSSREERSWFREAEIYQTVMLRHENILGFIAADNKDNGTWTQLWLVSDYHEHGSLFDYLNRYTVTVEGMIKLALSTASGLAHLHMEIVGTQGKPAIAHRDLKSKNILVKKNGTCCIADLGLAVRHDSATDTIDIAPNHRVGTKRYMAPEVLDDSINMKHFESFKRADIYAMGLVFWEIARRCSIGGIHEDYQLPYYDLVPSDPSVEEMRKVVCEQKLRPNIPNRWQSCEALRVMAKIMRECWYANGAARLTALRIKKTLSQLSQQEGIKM

[4] = target: Epithelial discoidin domain-containing receptor 1 (Homo sapiens) (UniProt Q08345); test: Selectivity interaction (KinomeScan (DiscoverX)) EUB0001619a DDR1; settings: at 1 µM
[5] = target: Serine/threonine-protein kinase 26 (Homo sapiens, UniProt Q9P289); test: Selectivity interaction (ActivX KiNativ screen (kinase selectivity in THP-1 cell lysates)) EUB0000639a STK26; assay type: subcellular; settings: lysate, at 0.01 µM
Serine/threonine-protein kinase 26, sequence (Q9P289 2-416 limits assumed): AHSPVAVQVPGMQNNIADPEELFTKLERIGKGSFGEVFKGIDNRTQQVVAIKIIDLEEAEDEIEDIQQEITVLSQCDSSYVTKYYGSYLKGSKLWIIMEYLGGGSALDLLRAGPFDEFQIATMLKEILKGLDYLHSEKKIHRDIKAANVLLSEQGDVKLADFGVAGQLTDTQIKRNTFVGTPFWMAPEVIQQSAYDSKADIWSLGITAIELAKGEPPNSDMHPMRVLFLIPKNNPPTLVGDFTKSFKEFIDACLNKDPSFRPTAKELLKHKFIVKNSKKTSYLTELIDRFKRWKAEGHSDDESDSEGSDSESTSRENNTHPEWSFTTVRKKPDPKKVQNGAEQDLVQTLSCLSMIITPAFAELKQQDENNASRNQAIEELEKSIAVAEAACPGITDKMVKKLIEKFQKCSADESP

[6] = target: T3, Phosphorylase b kinase gamma catalytic chain, liver/testis isoform (Homo sapiens) (UniProt P15735); test: Selectivity interaction (ActivX KiNativ screen (kinase selectivity in THP-1 cell lysates)) EUB0000639a PHKG2; assay type: subcellular; settings: lysate
T3 sequence (whole entry): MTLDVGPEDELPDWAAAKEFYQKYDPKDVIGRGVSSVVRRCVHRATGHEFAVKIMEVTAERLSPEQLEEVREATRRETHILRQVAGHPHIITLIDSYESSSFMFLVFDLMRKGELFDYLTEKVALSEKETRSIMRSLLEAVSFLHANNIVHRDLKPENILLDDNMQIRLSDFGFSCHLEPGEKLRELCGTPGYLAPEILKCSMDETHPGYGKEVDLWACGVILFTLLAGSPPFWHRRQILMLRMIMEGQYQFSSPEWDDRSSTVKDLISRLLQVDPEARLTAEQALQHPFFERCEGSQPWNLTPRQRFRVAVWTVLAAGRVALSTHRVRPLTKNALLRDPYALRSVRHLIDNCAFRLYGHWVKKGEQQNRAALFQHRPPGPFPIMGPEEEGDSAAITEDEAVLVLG

[7] = target: Tyrosine-protein kinase FRK (Homo sapiens) (UniProt P42685); test: Selectivity interaction (KinomeScan (DiscoverX)) EUB0000229b FRK; settings: at 10 µM
Tyrosine-protein kinase FRK (Homo sapiens), sequence (P42685 whole entry): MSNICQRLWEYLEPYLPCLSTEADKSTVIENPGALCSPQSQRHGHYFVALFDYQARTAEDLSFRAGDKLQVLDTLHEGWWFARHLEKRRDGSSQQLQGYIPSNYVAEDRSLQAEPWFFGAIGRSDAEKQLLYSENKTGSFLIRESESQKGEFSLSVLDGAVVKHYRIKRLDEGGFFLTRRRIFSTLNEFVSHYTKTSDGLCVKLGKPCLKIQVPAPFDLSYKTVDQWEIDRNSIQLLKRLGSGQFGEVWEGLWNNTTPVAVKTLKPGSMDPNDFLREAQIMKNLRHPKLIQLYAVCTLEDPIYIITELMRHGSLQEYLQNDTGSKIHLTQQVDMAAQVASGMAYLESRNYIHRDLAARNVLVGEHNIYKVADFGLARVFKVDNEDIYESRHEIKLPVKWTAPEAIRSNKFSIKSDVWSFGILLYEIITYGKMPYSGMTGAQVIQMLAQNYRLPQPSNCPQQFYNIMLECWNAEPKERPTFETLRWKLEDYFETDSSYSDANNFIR

[8] = target: Mitogen-activated protein kinase kinase kinase 21 (Homo sapiens) (UniProt Q5TCX8); test: Selectivity interaction (ProQinase) EUB0000171b MAP3K21
Mitogen-activated protein kinase kinase kinase 21 (Homo sapiens), sequence (Q5TCX8 whole entry): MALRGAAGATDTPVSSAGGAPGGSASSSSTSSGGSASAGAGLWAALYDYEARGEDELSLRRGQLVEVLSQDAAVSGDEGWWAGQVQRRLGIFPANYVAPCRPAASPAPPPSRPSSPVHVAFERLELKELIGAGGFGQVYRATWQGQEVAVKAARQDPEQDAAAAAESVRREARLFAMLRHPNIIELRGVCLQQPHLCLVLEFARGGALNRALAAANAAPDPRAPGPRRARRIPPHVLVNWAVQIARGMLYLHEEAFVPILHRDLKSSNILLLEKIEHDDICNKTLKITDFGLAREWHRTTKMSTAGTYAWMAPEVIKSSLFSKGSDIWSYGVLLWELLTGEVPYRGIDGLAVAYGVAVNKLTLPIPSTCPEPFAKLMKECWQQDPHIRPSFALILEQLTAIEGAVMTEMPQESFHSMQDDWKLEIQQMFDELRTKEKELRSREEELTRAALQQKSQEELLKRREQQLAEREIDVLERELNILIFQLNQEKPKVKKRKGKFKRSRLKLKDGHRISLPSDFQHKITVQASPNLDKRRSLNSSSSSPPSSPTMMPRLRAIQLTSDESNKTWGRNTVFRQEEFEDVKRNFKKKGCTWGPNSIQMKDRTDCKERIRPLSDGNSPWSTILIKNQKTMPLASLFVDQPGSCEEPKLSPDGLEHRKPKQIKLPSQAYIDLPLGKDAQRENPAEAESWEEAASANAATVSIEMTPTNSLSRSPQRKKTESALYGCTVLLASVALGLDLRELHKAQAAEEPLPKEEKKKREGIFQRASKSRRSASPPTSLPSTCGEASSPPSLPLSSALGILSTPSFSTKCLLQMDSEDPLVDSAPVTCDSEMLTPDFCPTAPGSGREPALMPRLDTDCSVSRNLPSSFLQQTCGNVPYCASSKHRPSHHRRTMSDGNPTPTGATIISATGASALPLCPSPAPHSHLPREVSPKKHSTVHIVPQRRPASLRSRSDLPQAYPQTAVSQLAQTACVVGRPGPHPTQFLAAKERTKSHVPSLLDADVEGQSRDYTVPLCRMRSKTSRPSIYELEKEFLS

[9] = target: Cyclin-dependent kinase-like 1 (Homo sapiens) (UniProt Q00532); test: Selectivity interaction (KinomeScan (DiscoverX)) EUB0001049a CDKL1; settings: at 1 µM
Cyclin-dependent kinase-like 1 (Homo sapiens), sequence (Q00532 whole entry): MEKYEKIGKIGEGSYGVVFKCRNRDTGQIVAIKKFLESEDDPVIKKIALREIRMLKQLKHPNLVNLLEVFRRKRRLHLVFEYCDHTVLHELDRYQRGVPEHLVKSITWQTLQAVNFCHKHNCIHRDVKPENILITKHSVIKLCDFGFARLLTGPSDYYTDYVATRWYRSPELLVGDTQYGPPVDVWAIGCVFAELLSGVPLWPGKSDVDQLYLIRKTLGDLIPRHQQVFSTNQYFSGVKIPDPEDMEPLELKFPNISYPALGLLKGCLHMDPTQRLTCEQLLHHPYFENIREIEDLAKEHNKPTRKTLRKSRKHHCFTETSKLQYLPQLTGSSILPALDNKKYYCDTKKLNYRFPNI

[10] = target: Macrophage colony-stimulating factor 1 receptor (Homo sapiens) (UniProt P07333); test: Selectivity interaction (KinomeScan (DiscoverX)) EUB0000092b CSF1R; settings: at 10 µM
Macrophage colony-stimulating factor 1 receptor (Homo sapiens), sequence (P07333 whole entry): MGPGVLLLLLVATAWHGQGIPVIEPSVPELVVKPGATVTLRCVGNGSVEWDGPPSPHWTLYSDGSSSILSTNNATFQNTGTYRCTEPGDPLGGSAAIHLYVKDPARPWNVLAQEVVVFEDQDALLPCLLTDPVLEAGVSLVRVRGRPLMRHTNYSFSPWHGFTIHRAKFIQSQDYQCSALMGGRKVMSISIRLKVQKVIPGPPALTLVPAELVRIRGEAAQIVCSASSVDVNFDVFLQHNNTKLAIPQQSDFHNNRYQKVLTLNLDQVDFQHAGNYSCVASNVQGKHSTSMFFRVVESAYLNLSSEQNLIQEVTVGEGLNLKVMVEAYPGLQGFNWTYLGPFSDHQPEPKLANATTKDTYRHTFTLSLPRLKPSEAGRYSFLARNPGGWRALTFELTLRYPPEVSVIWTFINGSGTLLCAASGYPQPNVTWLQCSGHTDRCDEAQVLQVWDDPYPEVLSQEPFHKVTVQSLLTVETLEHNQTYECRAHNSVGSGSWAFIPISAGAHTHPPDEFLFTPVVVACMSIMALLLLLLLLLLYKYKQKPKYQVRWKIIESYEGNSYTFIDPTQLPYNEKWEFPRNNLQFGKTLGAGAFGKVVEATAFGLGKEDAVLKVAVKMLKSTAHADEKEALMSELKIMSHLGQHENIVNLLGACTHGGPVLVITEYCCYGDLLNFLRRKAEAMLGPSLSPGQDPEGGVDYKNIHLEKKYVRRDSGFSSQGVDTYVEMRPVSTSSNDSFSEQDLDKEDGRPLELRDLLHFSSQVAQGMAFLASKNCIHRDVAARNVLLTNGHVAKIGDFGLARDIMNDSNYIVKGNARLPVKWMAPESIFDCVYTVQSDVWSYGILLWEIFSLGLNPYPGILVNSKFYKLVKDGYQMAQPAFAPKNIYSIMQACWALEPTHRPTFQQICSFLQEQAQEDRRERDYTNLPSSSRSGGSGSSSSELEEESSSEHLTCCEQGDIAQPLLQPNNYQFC

[11] = target: Dual specificity protein kinase CLK3 (Homo sapiens, UniProt P49761)
Dual specificity protein kinase CLK3, sequence (P49761 whole entry, looked up): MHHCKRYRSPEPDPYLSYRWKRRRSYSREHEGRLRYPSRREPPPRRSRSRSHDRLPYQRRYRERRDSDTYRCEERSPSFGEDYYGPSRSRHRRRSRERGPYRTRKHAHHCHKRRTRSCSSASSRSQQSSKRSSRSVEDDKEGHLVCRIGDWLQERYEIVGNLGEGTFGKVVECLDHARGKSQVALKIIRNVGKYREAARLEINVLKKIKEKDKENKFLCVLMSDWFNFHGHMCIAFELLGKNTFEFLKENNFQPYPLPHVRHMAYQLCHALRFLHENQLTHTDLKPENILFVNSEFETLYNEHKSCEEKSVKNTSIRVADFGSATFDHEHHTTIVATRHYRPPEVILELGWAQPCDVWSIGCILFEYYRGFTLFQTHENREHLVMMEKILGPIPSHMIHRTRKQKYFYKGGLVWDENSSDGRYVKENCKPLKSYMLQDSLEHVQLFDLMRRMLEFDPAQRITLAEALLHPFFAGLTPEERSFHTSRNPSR

CN(C)C/C=C/C(=O)Nc1ccc(C(=O)N2CCCC(Nc3ncc(Cl)c(-c4c[nH]c5ccccc45)n3)C2)cc1 (stereo not drawn)
% of control [1]: 100%

COCCN1CCC(c2cc(CN(C)C(=O)c3cccc(Oc4ccccc4)c3)ccn2)CC1
% activity ([2]; at 1 µM): 82%
% activity ([2]; at 10 µM): > 90%

Nc1cnc(N2CCc3cc(S(=O)(=O)Nc4c(F)cc(Cl)cc4F)cc(N4CCCC4=O)c32)nc1 [TP-020n]
% of control (Aurora kinase B): 98%
% of control [3]: 100%

N#Cc1cccc(-c2c[nH]c3ncnc(N4CCOCC4)c23)c1
% of control [4]: 100%

CC[C@@H]1[C@H](F)C(=O)N[C@@H]1COc1nccc2cc(C(N)=O)c(OC)cc12 [ZIMLOVISERTIB]
% of inhibition [5]: 19.6%
% of inhibition ([6]; at 0.01 µM): 15.9%
% of inhibition ([6]; at 0.04 µM): 3.7%
% of inhibition ([6]; at 0.2 µM): 0.2%
% of inhibition ([6]; at 1 µM): -8.2%
% of inhibition ([6]; at 5 µM): 7%

COc1cc(N(C)c2ccnc3ccc(C(F)(F)F)cc23)cc(OC)c1OC
% binding [7]: 95%

C=CC(=O)Nc1cccc(C(=O)Nc2ccc(Nc3cc(-c4[nH]c(SC)nc4C)ccn3)cc2)c1
% of control ([8]; at 1 µM): 81%
% of control ([8]; at 5 µM): 59%

COc1cc(Nc2nc(C)cc(-c3cnn4nc(OC)ccc34)n2)cc(C(F)(F)F)c1
% of control [9]: 73%

CCC(=O)N1CCN(c2ccc(-n3c(=O)ccc4cnc5ccc(-c6cnc7ccccc7c6)cc5c43)cc2C(F)(F)F)CC1
% of control [10]: 24%

Cc1cnc(Nc2ccc(F)cc2Cl)nc1-c1c[nH]c(C(=O)N[C@H](CO)c2cccc(Cl)c2)c1
% of inhibition [11]: 9%

Reference: ChEMBL document CHEMBL5465560, “Selectivity Literature for EUbOPEN Chemogenomic Library” (2024)
